{"source": "patent US11248024B2", "about": "“Noxa-derived, cell death-inducing peptide eMTD” (INDUSTRY-ACADEMIC COOPERATION FOUNDATION, CHOSUN UNIVERSITY, priority 2019, dated 2022)", "key": {"[1]": {"test_system": "mitochondria isolated from livers of BalB/C mice", "experiment": "Mitochondrial swelling, absorbance at 540 nm / TEM", "assay_type": "biochemical", "conditions": "peptides 25 μM, Ca2+ 200 μM, CsA 20 μM", "description": "First, livers excised from 6-week-old BalB/C mice were immersed in buffer (250 mM mannitol, […], 5 mM HEPES, pH 7.4, 0.1 mM PMSF and 4 rotenone) and completely homogenized using a Teflon Potter-Elvehjem grinder (Sigma). The ground liver was centrifuged at 1000×g for 10 min at 4° C. and the supernatants were centrifuged at 10,000×g for 10 min at 4° C. The pellets thus obtained were suspended in a regeneration buffer (250 mM sucrose, 10 mM HEPES, pH 7.4, 5 mM sodium succinate, 2 mM potassium phosphate, 0.1 mM PMSF, 25 μM EGTA, and 4 rotenone).\nThe mitochondria thus obtained were treated with 25 μM of eMTD (SEQ ID NO: 1) or eMTDΔ4 (SEQ ID NO: 2), followed by reading absorbance at 540 nm to determine mitochondrial swelling."}, "HeLa": {"test_system": "HeLa", "experiment": "MTS assay, relative cell viability, HeLa", "assay_type": "cell-based, human", "conditions": "for Viability (%): one hour treatment, Table 3", "description": "Individual cell lines (HeLa, CT26, and B16F10) were purchased from the Korean Cell Line Bank. Dulbecco's modified Eagle's medium (DMEM), trypsin-EDTA, fetal bovine serum (FBS), and Hank's balanced salt solution (HBSS) were products from Gibco (Thermo Fisher).\nEach of the cell lines was cultured in DMEM supplemented with 10% FBS in an incubator maintained at 37° C. and 5% 002.\nFor use in assaying the peptides eMTD (SEQ ID NO: 1) and eMTDΔ4 (SEQ ID NO: 2) synthesized in Example 1 for activity of inducing cell death, the cell line HeLa was grown to about 90% confluency in 96-well plates. The cells were washed once with HBSS buffer before treatment with the peptides of the present disclosure eMTD (SEQ ID NO: 1) and eMTDΔ4 (SEQ ID NO: 2) at concentrations of 0, 20, and 40 for one hour. Thereafter, the cells were incubated with an MTS assay agent (Promega) for one hour, followed by reading absorbance to calculate relative viability of cells.\nExamination was made to see whether the peptide has the activity of inducing cell death in other cancer cell lines. In this regard, the cancer cell lines HeLa, CT26, and B16F10 were treated with eMTDΔ4 (SEQ ID NO: 2) at concentrations of 0, 20, and 40 μM."}, "[2]": {"experiment": "Two-step assay, damage on lipid membrane of liposomes (TbCl3/DPA fluorescence)", "assay_type": "biochemical", "conditions": "for Relative Fluorescence Intensity: liposomes, excitation 276 nm, read at 490 nm", "description": "In brief, DOPS, DOPE, and DOPC (Avanti Polar Lipids) were dissolved at the ratio of 2:4:3 in chloroform, followed by vaporization. The residue was again dissolved at the concentration of 2 mg/mL in TbCl3 buffer (15 mM TbCl3, 50 mM sodium citrate, 20 mM HEPES, 150 mM NaCl, pH 7.4). The lipid mixture was extruded by Mini extruder (Avanti Polar Lipids) with a 400 nm to prepare liposomes which were washed with washing buffer (150 mM NaCl, 20 mM HEPES, pH 7.4) and then resuspended in an assay buffer (50 DPA, […], 20 mM HEPES, pH 7.4). The suspension was plated into 96-well plates and treated with 0, 10, or 25 μM of eMTD (SEQ ID NO: 1) or eMTDΔ4 (SEQ ID NO: 2). After stimulation with 276 nm laser, fluorescence was read at 490 nm."}, "HeLa cells [3]": {"test_system": "HeLa cells", "experiment": "Intracellular localization of FAM-labelled peptide, confocal images (TOM20, DAPI)", "assay_type": "cell-based, human", "conditions": "5 and 10 min incubation, fixed", "description": "In order to investigate the source that allowed the intracellular calcium influx observed in Example 4, examination was made of the site at which the peptide eMTDΔ4 (SEQ ID NO: 2) acts. In this regard, the fluorescent tracer fluorescein was labeled to the C-terminal of the peptide eMTDΔ4 (SEQ ID NO: 2) (eMTDΔ4 (SEQ ID NO: 2)-FAM). Then, HeLa cells grown on Lab-Tek chamber glass were incubated with eMTDΔ4 (SEQ ID NO: 2)-FAM for 5 and 10 min before fixation with 1% paraformaldehyde.\nMitochondria were visualized using an antibody to TOM20, which localizes to the outer membrane of the mitochondrion because MTD (SEQ ID NO: 3) is known to migrate to mitochondria, while nuclei were visualized using DAPI."}, "HeLa cells [4]": {"test_system": "HeLa cells", "experiment": "Time-lapse confocal microscopy of peptide entry, Mito-DsRed2 transfected cells", "assay_type": "cell-based, human", "conditions": "images every five seconds for 10 min", "description": "In order to investigate the temporal order and cause relation between the introduction of eMTDΔ4 (SEQ ID NO: 2) and the damage of mitochondrial membrane and cell membrane, mitochondria were visualized by transfecting Mito-DsRed2 into HeLa cells one day before the experiment. Thereafter, eMTDΔ4 (SEQ ID NO: 2)-FAM was applied to the HeLa cells images of which were then taken every five seconds for 10 min under a confocal microscope."}}, "note": "Ends that are not written are not given here. FAM = fluorescein"}
{"molecule": "[Ca+2]", "note": "[Ca, reference compound]", "values": [{"measurement": "Mitochondrial swelling, relative absorbance at 540 nm", "setting": "[1]; Minute 0", "result": 100, "unit": "%"}, {"measurement": "Mitochondrial swelling, relative absorbance at 540 nm", "setting": "[1]; Minute 10", "result": 77, "unit": "%"}, {"measurement": "Mitochondrial swelling, relative absorbance at 540 nm", "setting": "[1]; Minute 20", "result": 75, "unit": "%"}, {"measurement": "Mitochondrial swelling, relative absorbance at 540 nm", "setting": "[1]; Minute 30", "result": 73, "unit": "%"}, {"measurement": "Mitochondrial swelling, relative absorbance at 540 nm", "setting": "[1]; Minute 40", "result": 72, "unit": "%"}, {"measurement": "Mitochondrial swelling, relative absorbance at 540 nm", "setting": "[1]; Minute 50", "result": 70, "unit": "%"}, {"measurement": "Mitochondrial swelling, relative absorbance at 540 nm", "setting": "[1]; Minute 60", "result": 70, "unit": "%"}]}
{"molecule": "KLNFRQKLLNLISKLFCSGT [eMTD]", "values": [{"measurement": "Viability (%)", "setting": "HeLa; 20 μM", "result": 61, "unit": "%"}, {"measurement": "Viability (%)", "setting": "HeLa; 40 μM", "result": 63, "unit": "%"}, {"measurement": "cell death activity (in words)", "setting": "HeLa; FIG. 1 and Table 3", "result": "potent cell death activity"}, {"measurement": "Mitochondrial swelling, relative absorbance at 540 nm", "setting": "[1]; Minute 0", "result": 100, "unit": "%"}, {"measurement": "Mitochondrial swelling, relative absorbance at 540 nm", "setting": "[1]; Minute 10", "result": 86, "unit": "%"}, {"measurement": "Mitochondrial swelling, relative absorbance at 540 nm", "setting": "[1]; Minute 20", "result": 78, "unit": "%"}, {"measurement": "Mitochondrial swelling, relative absorbance at 540 nm", "setting": "[1]; Minute 30", "result": 71, "unit": "%"}, {"measurement": "Mitochondrial swelling, relative absorbance at 540 nm", "setting": "[1]; Minute 40", "result": 68, "unit": "%"}, {"measurement": "Mitochondrial swelling, relative absorbance at 540 nm", "setting": "[1]; Minute 50", "result": 68, "unit": "%"}, {"measurement": "Mitochondrial swelling, relative absorbance at 540 nm", "setting": "[1]; Minute 60", "result": 67, "unit": "%"}, {"measurement": "liposome lipid membrane damage (in words)", "setting": "[2]; FIGS. 10A to 10C and Table 6", "result": "higher fluorescence intensity was detected"}, {"measurement": "Relative Fluorescence Intensity", "setting": "[2]; 10 μM", "result": 27, "unit": "%"}, {"measurement": "Relative Fluorescence Intensity", "setting": "[2]; 25 μM", "result": 55, "unit": "%"}]}
{"molecule": "MPGKKARKNAQPSPARAPAELEVECATQLRRFGDKLNFRQKLLNLISKLFCSGT (cysteines drawn unpaired) [fl-Noxa, reference compound]", "values": [{"measurement": "Viability (%)", "setting": "HeLa; 20 μM", "result": 101, "unit": "%"}, {"measurement": "Viability (%)", "setting": "HeLa; 40 μM", "result": 106, "unit": "%"}]}
{"molecule": "eMTDΔ4-FAM: fluorescent tracer fluorescein labeled to the C-terminal of the peptide eMTDΔ4 (KLNFRQKLLNLISKLF-{FAM})", "values": [{"measurement": "intracellular localization", "setting": "HeLa cells [3]", "result": "consistent with the visualized positions of mitochondria"}, {"measurement": "mitochondrial morphology", "setting": "HeLa cells [3]", "result": "mitochondrial fragmentation was observed"}, {"measurement": "entry of peptide into cells", "setting": "HeLa cells [4]", "result": "diffused into the cytosol through the cell membrane bubbles"}]}
